Source: patent US20070110817A1, “Biological active blood serum obtained by electrostimulation” (Owen Holding Ltd., priority 2004, published 2007)

System: rats
Experiment: Escape reaction latency after zytisin with or without serum
Format: in vivo, rat
Procedure: During the formation and the long-term maintenance of information a significant role is attributed to H-cholino-ceptive mechanisms. 30 animals who were taught for five days how to dive under a “bell” were subdivided into three groups.
A physiological solution of zytisin (a H-cholino-ceptive antagonist of the brain) was injected with a dose of 1 mg/kg body weight into the peritoneal cavity 30 minutes prior to the test of the animals of the first group (ten rats).
Biologically active serum was administered in a dose of 100 mg/kg body weight to the animals of the second group (ten rats) and 30 minutes later a zytisin solution was administered with a dose of 1 mg/kg body weight.
The third animal group (control—ten rats) received a 1 ml injection of a physiological salt solution.
The complex behaviour of the animals was tested according to above-indicated method 48 hours after the injection of the indicated substances.

O=c1cccc2n1C[C@@H]1CNC[C@H]2C1 [zytisin]
slowing of the “escape reaction” in comparison to control animals (48 hours after zytisin 1 mg/kg): 3 fold | Latency period for the reaction of rats to the situation (after 48 h, zytisin 1 mg/kg, serum 100 mg/kg 30 minutes before zytisin, control 13.33 ± 0.58): 40.0 ± 14 s
